Reference: patent publication US9717247B2, “Synergistic fungicidal active combinations” (BAYER CROPSCIENCE AG, priority 2003, dated 2017)

Legend:
Sphaerotheca fuliginea = Sphaerotheca fuliginea test (cucumber)/protective; format: in vivo; details: protective, 7 days after inoculation; for pest or weed control at 1 g/ha: application rate 1 g/ha; for pest or weed control at 2 g/ha: application rate 2 g/ha
Botrytis cinerea = Botrytis cinerea test (bean)/protective; details: protective, 2 days after inoculation
Experimental: After the spray coating has dried on, 2 small pieces of agar colonized by Botrytis cinerea are placed onto each leaf. The inoculated plants are placed in a darkened chamber at about 20° C. and 100% relative atmospheric humidity.
The size of the infected areas on the leaves is evaluated 2 days after the inoculation.

[1] = tested on: Erysiphe graminis f.sp. hordei; assay: Erysiphe test (barley)/curative; format: in vivo; details: application rate 25 g/ha, curative, evaluation 6 days after inoculation
[2] = tested on: Erysiphe graminis f.sp. hordei; assay: Erysiphe test (barley)/protective; format: in vivo; details: application rate 12.5 g/ha, protective, evaluation 6 days after inoculation
Pyrenophora teres = Pyrenophora teres test (barley)/curative; details: in Hordeum vulgare, 288 h, read-out: Efficacy in % found
Experimental: Pyrenophora teres Test (Barley)/Curative • Solvent: 50 parts by weight of N,N-dimethylacetamide • Emulsifier: 1 part by weight of alkylaryl polyglycol ether
To test for curative activity, young plants are sprayed with a conidia suspension of Pyrenophora teres. The plants remain in an incubation cabinet at 20° C. and 100% relative atmospheric humidity for 48 hours.
The plants are placed in a greenhouse at a temperature of about 20° C. and a relative atmospheric humidity of about 80%.
Evaluation is carried out 12 days after the inoculation.

Plasmopara viticola = Plasmopara viticola test (grapevine)/protective; format: in vivo; details: protective, 6 days after inoculation
Phytophthora infestans = details: in vivo
Rhizoctonia solani = Rhizoctonia solani test (in vitro)/microtitre plates; format: cell-based; details: PDB, 5 days of incubation
Experimental: Rhizoctonia solani Test (In Vitro)/Microtitre Plates The microtest is carried out in microtitre plates using potato dextrose broth (PDB) as liquid test medium. The active compounds are used as technical grade a.i., dissolved in acetone. For inoculation, a mycelium suspension of Rhizoctonia solani is used. After 5 days of incubation in the dark and with shaking (10 Hz) for each filled cavity of the microtitre plates, the light transmittance is determined with the aid of a spectrophotometer.

Leptosphaeria nodorum [3] = assay: Leptosphaeria nodorum test (wheat)/curative; details: application rate 25 g/ha, curative, evaluation 8 days after inoculation
Experimental: Leptosphaeria nodorum Test (Wheat)/Curative • Solvent: 50 parts by weight of N,N-dimethylacetamide • Emulsifier: 1 part by weight of alkylaryl polyglycol ether
To test for curative activity, young plants are sprayed with a conidia suspension of Leptosphaeria nodorum.
The plants are placed in a greenhouse at a temperature of about 15° C. and a relative atmospheric humidity of about 80%.
(§1) Evaluation is carried out 8 days after the inoculation.

Alternaria solani = Alternaria solani test (tomato)/protective; format: in vivo; details: protective, 3 days after inoculation
Puccinia recondita = Puccinia recondita test (wheat)/curative; details: application rate 62.5 g/ha, curative, evaluation 8 days after inoculation
Experimental: Puccinia recondita Test (Wheat)/Curative • Solvent: 50 parts by weight of N,N-dimethylacetamide • Emulsifier: 1 part by weight of alkylaryl polyglycol ether
To test for curative activity, young plants are sprayed with a conidia suspension of Puccinia recondita. The plants remain in an incubation cabinet at 20° C. and 100% relative atmospheric humidity for 48 hours.
The plants are placed in a greenhouse at a temperature of about 20° C. and a relative atmospheric humidity of about 80% to promote the development of rust pustules.
as §1

Leptosphaeria nodorum [4] = assay: Leptosphaeria nodorum test (wheat)/protective; format: in vivo; details: application rate 25 g/ha, protective, evaluation 11 days after inoculation
Pyricularia oryzae = format: cell-based; details: 3 ppm; in vitro, PDB, 3 days of incubation
[5] = Podosphaera fuliginea, 168 h, application rate 10 g/ha, read-out: Efficacy in % found
[6] = Podosphaera fuliginea, 168 h, read-out: Efficacy in % found

## CC(C)NC(=O)N1CC(=O)N(c2cc(Cl)cc(Cl)c2)C1=O [(12-4) iprodione, iprodione]
Sphaerotheca fuliginea; [5]
  pest or weed control at 10 g/ha: 0%
Botrytis cinerea; application rate 5 g/ha
  Efficacy in % found: 13%
Botrytis cinerea; application rate 10 g/ha
  Efficacy in % found: 54%
Botrytis cinerea; application rate 20 g/ha
  Efficacy in % found: 47%

## Cc1nn(C)c(F)c1C(=O)Nc1ccccc1C(C)CC(C)(C)C (stereo not drawn) [(1-8), 5-fluoro-1,3-dimethyl-N-[2-(1,3,3-trimethylbutyl)phenyl]-1H-pyrazole-4-carboxamide]
[1]
  Efficacy in % found: 0%
[2]
  Efficacy in % found: 11%
Pyrenophora teres
  pest or weed control at 25 g/ha: 14%

## CCO[PH](=O)O [(17-1) fosetyl-A1, fosetyl-A1]
Plasmopara viticola; application rate 500 g/ha
  Efficacy in % found: 33%
Plasmopara viticola; application rate 1000 g/ha
  Efficacy in % found: 58%

## N#Cc1ccccc1NC(=O)c1snc(Cl)c1Cl [3,4-dichloro-N-(2-cyanophenyl)isothiazole-5-carboxamide]
Pyrenophora teres
  pest or weed control at 125 g/ha: 43%

## C[C@H](Nc1c(-c2c(F)cc(F)cc2F)c(Cl)nc2ncnn12)C(F)(F)F [(22-1), 5-chloro-N—[(IS)-2,2,2-trifluoro-1-methylethyl]-6-(2,4,6-trifluorophenyl)[1,2,4]triazolo-[1,5-a]pyrimidine-7-amine]
Sphaerotheca fuliginea; [6]
  pest or weed control at 1 g/ha: 22%

## Cc1ccc(C(C)NC(=O)[C@H](NC(=O)OC(C)C)C(C)C)cc1 (stereo partly drawn) [(5-1) iprovalicarb, iprovalicarb]
Phytophthora infestans
  Efficacy in % found: 64%

## CCCOC(=O)NCCCN(C)C [(11-2) propamocarb, propamocarb]
Rhizoctonia solani; 1 ppm
  Efficacy in % found: 7%

## Cc1cc(C)nc(Nc2ccccc2)n1 [(9-3) pyrimethanil, pyrimethanil]
Sphaerotheca fuliginea; [5]
  pest or weed control at 10 g/ha: 0%

## Cc1ccc(N(SC(F)(Cl)Cl)S(=O)(=O)N(C)C)cc1 [(4-2) tolylfluanid, tolylfluanid]
Sphaerotheca fuliginea; [5]
  pest or weed control at 10 g/ha: 0%

## Cn1cc(C(=O)Nc2ccc(F)cc2-c2ccc(Cl)c(Cl)c2)c(C(F)F)n1 [(24-1), N-(3′,4′-dichloro-5-fluoro-1,1′-biphenyl-2-yl)-3-(difluoromethyl)-1-methyl-1H-pyrazole-4-carboxamide]
Phytophthora infestans
  Efficacy in % found: 0%
Rhizoctonia solani; 0.003 ppm
  Efficacy in % found: 50%

## Fc1ccc(C2(Cn3cncn3)OC2c2ccccc2Cl)cc1 (stereo not drawn) [(3-12) epoxyconazole, epoxiconazole]
Pyrenophora teres
  pest or weed control at 125 g/ha: 57%

## CC(C)CC(C)c1ccccc1NC(=O)c1ccccc1C(F)(F)F (stereo not drawn) [(1-15), N-[2-(1,3-dimethylbutyl)phenyl]-2-(trifluoromethyl)benzamide]
[2]
  Efficacy in % found: 0%
Pyrenophora teres
  pest or weed control at 25 g/ha: 14%

## CO/N=C(/C1=NOCCO1)c1ccccc1Oc1ncnc(Oc2ccccc2Cl)c1F [(2-2) fluoxastrobin, fluoxastrobin]
Sphaerotheca fuliginea; [6]
  pest or weed control at 2 g/ha: 37%
Pyrenophora teres
  pest or weed control at 25 g/ha: 0%
Leptosphaeria nodorum [3]
  Efficacy in % found: 29%

## CO/C=C(/C(=O)OC)c1ccccc1Oc1cc(Oc2ccccc2C#N)ncn1 [(2-1) azoxystrobin, azoxystrobin]
Sphaerotheca fuliginea; Podosphaera fuliginea, 168 h, application rate 4 g/ha, read-out: Efficacy in % found
  pest or weed control at 4 g/ha: 50%

## COC(=O)[C@@H](C)N(C(=O)Cc1ccccc1)c1c(C)cccc1C [(8-5) benalaxyl-M, benalaxyl-M]
Alternaria solani; application rate 2 g/ha
  Efficacy in % found: 0%

## CNC(=O)/C(=N/OC)c1ccccc1Oc1ncnc(Oc2cccc(Cl)c2C)c1F [(2-3), (2E)-2-(2-{[6-(3-chloro-2-methylphenoxy)-5-fluoro-4-pyrimidinyl]oxy}phenyl)-2-(methoxyimino)-N-methylethanamide]
Alternaria solani; application rate 1 g/ha
  Efficacy in % found: 39%
Alternaria solani; application rate 2 g/ha
  Efficacy in % found: 32%

## CO/N=C(/C(=O)OC)c1ccccc1COc1ccccc1C [(2-9) kresoxim-methyl, kresoxim-methyl]
Puccinia recondita
  Efficacy in % found: 0%

## N#Cc1c[nH]cc1-c1cccc2c1OC(F)(F)O2 [(16-2) fludioxonil, fludioxonil]
Puccinia recondita
  Efficacy in % found: 0%

## CO/N=C(/C(=O)OC)c1ccccc1CO/N=C(\C)c1cccc(C(F)(F)F)c1 [(2-4) trifloxystrobin, trifloxystrobin]
[2]
  Efficacy in % found: 78%
Sphaerotheca fuliginea; [6]
  pest or weed control at 1 g/ha: 20%

## CC1(C(=O)Nc2ccc(O)c(Cl)c2Cl)CCCCC1 [(6-6) fenhexamid, fenhexamid]
Sphaerotheca fuliginea; [5]
  pest or weed control at 10 g/ha: 0%

## CC(C)(C)C(O)C(Oc1ccc(-c2ccccc2)cc1)n1cncn1 (stereo not drawn) [(3-21) bitertanol, bitertanol]
Sphaerotheca fuliginea; [6]
  pest or weed control at 2 g/ha: 20%

## CCC1(C(=O)NC(C)c2ccc(Cl)cc2)C(C)C1(Cl)Cl (stereo not drawn) [(6-7) carpropamid, carpropamid]
Pyrenophora teres
  pest or weed control at 125 g/ha: 14%

## O=C(Nc1ccccc1-c1ccc(Cl)cc1)c1cccnc1Cl [(6-2) boscalid, boscalid]
Sphaerotheca fuliginea; [6]
  pest or weed control at 1 g/ha: 10%

## CC(C)(C)C(O)(CCc1ccc(Cl)cc1)Cn1cncn1 (stereo not drawn) [(3-17) tebuconazole, tebuconazole]
Sphaerotheca fuliginea; [6]
  pest or weed control at 2 g/ha: 10%
Pyrenophora teres
  pest or weed control at 25 g/ha: 29%
Leptosphaeria nodorum [3]
  Efficacy in % found: 29%

## CC(C)CC(C)c1ccccc1NC(=O)c1ccccc1I (stereo not drawn) [(1-13), N-[2-(1,3-dimethylbutyl)phenyl]-2-iodobenzamide]
[2]
  Efficacy in % found: 0%
Leptosphaeria nodorum [4]
  Efficacy in % found: 13%
Sphaerotheca fuliginea; [6]
  pest or weed control at 1 g/ha: 10%
Alternaria solani; application rate 2 g/ha
  Efficacy in % found: 0%
Leptosphaeria nodorum [3]
  Efficacy in % found: 0%

## O=C(Nc1ccccc1)N(Cc1ccc(Cl)cc1)C1CCCC1 [(20-1) pencycuron, pencycuron]
Rhizoctonia solani; 1 ppm
  Efficacy in % found: 54%

## CCCC1COC(Cn2cncn2)(c2ccc(Cl)cc2Cl)O1 (stereo not drawn) [(3-3) propiconazole, propiconazole]
Sphaerotheca fuliginea; [6]
  pest or weed control at 1 g/ha: 37%

## mancozeb [(7-1) mancozeb]
Sphaerotheca fuliginea; application rate 10 g/ha
  Efficacy in % found: 0%

## CC(C)OC(=O)N[C@H](C(=O)N[C@H](C)c1nc2ccc(F)cc2s1)C(C)C [(5-3) benthiavalicarb, benthiavalicarb]
Phytophthora infestans
  Efficacy in % found: 50%

## propineb [(7-4) propineb]
Sphaerotheca fuliginea; application rate 5 g/ha
  Efficacy in % found: 0%

## OC(Cc1ccccc1Cl)(Cn1nc[nH]c1=S)C1(Cl)CC1 (stereo not drawn) [(3-15) prothioconazole, prothioconazole]
[1]
  Efficacy in % found: 22%
[2]
  Efficacy in % found: 67%
Leptosphaeria nodorum [4]
  Efficacy in % found: 13%
Sphaerotheca fuliginea; [6]
  pest or weed control at 1 g/ha: 43%

## N#Cc1c(Cl)c(Cl)c(Cl)c(C#N)c1Cl [(19-2) chlorothalonil, chlorothalonil]
Sphaerotheca fuliginea; [5]
  pest or weed control at 10 g/ha: 0%

## CO/C=C(/C(=O)OC)c1ccccc1COc1cccc(C(F)(F)F)n1 [(2-11) picoxystrobin, picoxystrobin]
Pyrenophora teres
  pest or weed control at 125 g/ha: 86%

## COC(=O)N(OC)c1ccccc1COc1ccn(-c2ccc(Cl)cc2)n1 [(2-12) pyraclostrobin, pyraclostrobin]
Alternaria solani; application rate 2 g/ha
  Efficacy in % found: 37%

## [O-][n+]1nc(-n2ccnc2)nc2ccc(Cl)cc21 [(14-3) triazoxide, triazoxide]
Pyricularia oryzae
  Efficacy in % found: 3%

## CC(C)[C@@H](C)Nc1c(-c2c(F)cc(F)cc2F)c(Cl)nc2ncnn12 [(22-2), 5-chloro-N—[(IR)-1,2-dimethylpropyl]-6-(2,4,6-trifluorophenyl)[1,2,4]triazolo[1,5-a]-pyrimidine-7-amine]
Sphaerotheca fuliginea; [6]
  pest or weed control at 1 g/ha: 22%

## CCCN(CCOc1c(Cl)cc(Cl)cc1Cl)C(=O)n1ccnc1 [(14-2) prochloraz, prochloraz]
Puccinia recondita
  Efficacy in % found: 0%

## CSC1=N[C@@](C)(c2ccccc2)C(=O)N1Nc1ccccc1 [(19-13) fenamidone, fenamidone]
Phytophthora infestans
  Efficacy in % found: 47%

## COCC(=O)N(c1c(C)cccc1C)[C@H](C)C(=O)OC [(8-4) metalaxyl-M, metalaxyl-M]
Alternaria solani; application rate 2 g/ha
  Efficacy in % found: 0%

## CCCN(CC)CC1COC2(CCC(C(C)(C)C)CC2)O1 (stereo not drawn) [(19-10) spiroxamine, spiroxamine]
Sphaerotheca fuliginea; [5]
  pest or weed control at 10 g/ha: 0%
Puccinia recondita
  Efficacy in % found: 0%

## CC(C)CC(C)c1sccc1NC(=O)c1cn(C)nc1C(F)(F)F (stereo not drawn) [(6-14) penthiopyrad, penthiopyrad]
Puccinia recondita
  Efficacy in % found: 44%
